Measurements: publication PMC12680756, “Reflectometric-based sensor arrays for the screening of kinase-inhibitor interactions and kinetic determination” (Analytical and Bioanalytical Chemistry, 2025)

Experiments:
[1] = target: T1, FAK (Homo sapiens, UniProt Q05397); assay: Competitive MST assay, labeled STP-FAK complex titrated with another inhibitor; type: binding; details: labeled STP (40 µM) in complex with FAK (40 nM)
Experimental: Microscale thermophoresis was performed with the instrument Monolith NT.115, capillaries and MO.Control Software from Nanotemper Technologies, Munich, Germany. For each experiment, 16 capillaries were filled with a sample solution. […] The fluorescence of a specific area of each capillary was measured prior and during the thermophoresis experiment. For a better comparability, the fluorescence intensity obtained during the measurement was normalized to the fluorescence in each capillary recorded prior to the start of the experiment.

[2] = system: PKA in the protein mix; assay: 1-lambda reflectometry inhibitor screening on spotted sensor array, protein mix; type: binding, bovine; details: for order of binding affinity by color change of the spots (naked eye): protein mix 50 µg/mL, image after association, Fig. 5a; for increase of the average relative signal: protein mix, sensograms Fig. 5c, immobilized inhibitor spot
Experimental: (§1) • Manual spotting: the inhibitor dissolved in DMSO (1 mg/mL) was dropped to the measurement region on the transducer by pipetting. The immobilization process was as specified above. • Automatic spotting: the inhibitor dissolved in DMSO (1 mg/mL) was dropped to the measurement region on the transducer via the ceramic pin of the spotter. The droplets were dried under ambient conditions, and the process was repeated twice. After drying the last droplet, the transducer was prepared for measurements or stored at 4°C.
(§2) Screening was performed with 1-lambda reflectometry and transducers on which different inhibitors were spotted in the measurement area. The measurement protocols were the same as for the single assays.
One region per row was set as the reference ROI void of inhibitor.

[3] = target: T1, FAK; assay: 1-lambda reflectometry inhibitor screening on spotted sensor array, FAK; type: binding; details: sensograms Fig. 5c; for order regarding the strength of the association: FAK as kinase sample
Experimental: as §1, §2

[4] = target: protein mix containing cAMP-dependent protein kinase (PKA) (Bos taurus, UniProt P00517); assay: 1-lambda reflectometry single assays, protein mix flushed over immobilized inhibitor, kinetic evaluation; details: read-out: dissociation rate constant kd

T1 sequence (Q05397 410-689, species assumed): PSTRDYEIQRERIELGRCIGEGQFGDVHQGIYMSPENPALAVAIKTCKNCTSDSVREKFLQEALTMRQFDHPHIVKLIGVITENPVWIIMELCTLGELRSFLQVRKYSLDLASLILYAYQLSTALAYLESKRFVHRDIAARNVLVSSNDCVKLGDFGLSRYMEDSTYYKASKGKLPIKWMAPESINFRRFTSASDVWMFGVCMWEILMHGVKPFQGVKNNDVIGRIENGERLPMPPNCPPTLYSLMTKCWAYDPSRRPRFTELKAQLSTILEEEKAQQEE

Row | Structure (SMILES) | shape of dose-response curve in competitive MST [1] | order of binding affinity by color change of the spots (naked eye) [2] | increase of the average relative signal [2] [%] | order regarding the strength of the association [3] | koff [4] [s⁻¹] | increase of the relative signal ([3]; FAK, immobilized inhibitor spot) [%]
1 | Cl.Cn1cc(C2=C(c3c4n(c5ccccc35)CCC(CN)C4)C(=O)NC2=O)c2ccccc21 (centres unmarked) [BisX, Bisindolylmaleimide X] | the slope was inversed compared to the one of the direct assays |  |  |  |  | 
2 | CN[C@@H]1C[C@H]2O[C@@](C)([C@@H]1OC)n1c3ccccc3c3c4c(c5c6ccccc6n2c5c31)C(=O)NC4 [STP, Staurosporine] |  | imatinib > fragment2 > fragment1 > STP |  |  |  | 
3 | O=S(=O)(c1cccc2cnccc12)N1CCCNCC1 [fasudil] |  | strongest color change | 1.7 | STP > imatinib > fasudil > fragment2 > fragment1 |  | 
4 | COc1ccc(-c2cc(N)[nH]n2)cc1Cl [fragment1] |  | imatinib > fragment2 > fragment1 > STP |  | STP > imatinib > fasudil > fragment2 > fragment1 | 0.007 | 
5 | Nc1ncnc(Nc2ccc(F)cc2)n1 [fragment2] |  | imatinib > fragment2 > fragment1 > STP |  | STP > imatinib > fasudil > fragment2 > fragment1 |  | 
6 | Cc1ccc(NC(=O)c2ccc(CN3CCN(C)CC3)cc2)cc1Nc1nccc(-c2cccnc2)n1 [imatinib] |  | imatinib > fragment2 > fragment1 > STP | 0.84 | STP > imatinib > fasudil > fragment2 > fragment1 |  | 0.13
